Test results taken from patent US10189794B2, “Heteroaryl compounds and uses thereof” (Celgene CAR LLC, priority 2013, dated 2019).
Like-named read-outs stand apart in the source and are kept apart here.

Tests used:
MDA-MB-453 cells = test: Cell proliferation, MDA-MB-453 (CellTiter Glo); assay type: cell-based; settings: Homo sapiens, read-out: Cell Proliferation GI50 (nM) MDA
Description: For both MDA-MB-453 and Huh7 cells the starting density was 5000 cells per well. The cells were allowed to settle down for 4 hr and were then treated with 5, 1.25, 0.31, 0.078, 0.020 or 0.005 μM of test compound for: 96 hr for MDA-MB-453 and 120 hr for Huh7 cells. Cell viability was determined by CellTiter Glo (Promega, Madison, Wis.) and the results were converted to cell numbers using a standard curve. The growth inhibition (GI50) values were determined by Graph Pad Prism.
The results of these experiments show the ability of compounds to inhibit cell growth in FGFR dependant cell lines and are depicted in Table 8, in the columns titled “Cell Proliferation GI50 (nM)”. MDA-MB-453 cell results fall under the heading “MDA” and Huh7 cell results fall under the heading “Huh.”

[1] = biological target: FGFR4 in MDA-MB-453 cells (Homo sapiens (Human), UniProt P22455, Y367C); test: Target occupancy assay with biotinylated covalent probe I-127; assay type: cell-based; settings: MDA-MB-453 lysate; 2 μM biotinylated probe I-127
Description: In order to assess free FGFR4 protein a biotinylated covalent probe was utilized. […] The reaction was incubated for 2 hr at room temperature. The samples and probe mixture were transferred to a FGFR4-coated MSD plate for 2 hr at room temperature. MSD signals were obtained with an anti-streptavidin Sulfo-tag (Meso Scale) antibody for 1 hr at room temperature.
If a compound completely (100%) covalently modies FGFR4 no free FGFR4 should be available for covalent modification by the biotinylated probe and subsequent binding to streptavidin and detection.

Huh7 cells = test: Cell proliferation, Huh7 (CellTiter Glo); assay type: cell-based; settings: Homo sapiens, read-out: Cell Proliferation GI50 (nM) HUH
Description: The growth inhibition (GI50) values were determined by Graph Pad Prism.

FGFR4-WT = FGFR4-WT (Homo sapiens (Human), UniProt P22455); test: Omnia assay for potency assessment against FGFR4 enzyme; assay type: biochemical; settings: read-out: FGFR4 IC50
Description: A 10× stock solution of FGFR4-WT (PR4380C), (from Invitrogen, Carlsbad, Calif.) corresponding to method a in Table 7, was prepared as described below. Alternatively, a 10× stock solution of FGFR4-WT (F01-11G), (SignalChem, Richmond, BC) corresponding to method b in Table 7, was prepared as described below. A solution of 1.4×ATP (AS001A) and 5×Tyr-Sox conjugated peptide substrate (KNZ3101) were prepared in IX kinase reaction buffer consisting of 20 mM Tris, pH 7.5, 5 mM MgCl2, 1 mM EGTA, 5 mM β-glycerophosphate, 5% glycerol (10× stock, KB002A) and 0.2 mM DTT (DS001A). […] The serially diluted compounds were prepared on a Tecan EVO100. A second addition of 10 μl of Tyr-Sox FGFR4 substrate was added to each well and the kinase reactions were started with the addition of 35 μL of 1.4×ATP. The reactions were monitored every 71 seconds for 240 minutes at λex360/λem485 in a Synergy plate reader from BioTek (Winooski, Vt.).

[2] = method a: Invitrogen FGFR4-WT 10 nM, ATP 300 uM, Y10-Sox 10 uM

Sequence of FGFR4-WT (P22455 22-802): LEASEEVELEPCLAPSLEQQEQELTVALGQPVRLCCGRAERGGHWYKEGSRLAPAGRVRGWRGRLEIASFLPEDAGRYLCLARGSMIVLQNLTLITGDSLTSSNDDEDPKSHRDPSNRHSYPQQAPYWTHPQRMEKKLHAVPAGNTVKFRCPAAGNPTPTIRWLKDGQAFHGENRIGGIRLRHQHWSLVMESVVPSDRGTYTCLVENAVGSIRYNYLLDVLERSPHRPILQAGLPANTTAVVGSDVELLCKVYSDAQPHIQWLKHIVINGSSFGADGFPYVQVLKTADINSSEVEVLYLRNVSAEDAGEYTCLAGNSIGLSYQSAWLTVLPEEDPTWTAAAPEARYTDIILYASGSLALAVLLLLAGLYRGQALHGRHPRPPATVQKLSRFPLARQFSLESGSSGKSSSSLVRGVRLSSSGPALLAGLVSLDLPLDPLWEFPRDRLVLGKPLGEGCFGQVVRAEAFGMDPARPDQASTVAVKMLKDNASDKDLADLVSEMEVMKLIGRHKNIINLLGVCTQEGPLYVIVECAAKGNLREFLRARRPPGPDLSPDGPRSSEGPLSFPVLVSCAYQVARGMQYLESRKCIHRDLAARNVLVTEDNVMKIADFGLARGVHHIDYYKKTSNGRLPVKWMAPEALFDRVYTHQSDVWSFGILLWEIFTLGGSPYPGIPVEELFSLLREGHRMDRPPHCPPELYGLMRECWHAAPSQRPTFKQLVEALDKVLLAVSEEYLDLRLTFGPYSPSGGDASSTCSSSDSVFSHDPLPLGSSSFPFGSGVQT
Sequence of FGFR4 in MDA-MB-453 cells (P22455 22-802 Y367C): as the sequence (P22455 22-802) above, with Y346C counted along it

| GI50 (MDA-MB-453 cells; MDA-MB-453, 96 hr) [nM] | GI50 (Huh7 cells; Huh-7, Huh7, 120 hr) [nM] | Structure (SMILES) | IC50 (FGFR4-WT; [2]) [nM] | other results |
| --- | --- | --- | --- | --- |
| < 100 | 501 to 999 | C=CC(=O)Nc1cc(N2CCN(CCOC)CC2)ccc1Nc1ncc2c(n1)N(Cc1cccc(NC(=O)CC)c1)C(=O)N(c1cc(OC)cc(OC)c1)C2 [I-9] |  | EC50 [1]: < 100 nM |
| 101 to 500 | 501 to 999 | C=CC(=O)Nc1cc(N(C)CCOC)ccc1Nc1ncc2c(n1)N(C)C(=O)N(c1cc(OC)cc(OC)c1)C2 [I-21] |  | EC50 [1]: 101 to 500 nM |
|  |  | C=CC(=O)NC1CCCC1Nc1ncc2c(n1)N(C)C(=O)N(c1c(Cl)c(OC)cc(OC)c1Cl)C2 (racemic) [I-112] | < 100 |  |
|  |  | C=CC(=O)NC1CCCCC1Nc1ncc2c(n1)N(CC1CC1)C(=O)N(c1c(Cl)c(OC)cc(OC)c1Cl)C2 (racemic) [I-129] | < 100 |  |
| < 100 | 501 to 999 | C=CC(=O)Nc1ccccc1Nc1ncc2c(n1)N(Cc1ccc(F)cc1)C(=O)N(c1c(Cl)c(OC)cc(OC)c1Cl)C2 [I-25] |  | EC50 [1]: 101 to 500 nM |
| 101 to 500 |  | C=CC(=O)Nc1cc(N2CCOCC2)ccc1Nc1ncc2c(n1)N(C)C(=O)N(c1cc(OC)cc(OC)c1)C2 [I-17] |  | EC50 [1]: 101 to 500 nM |
|  |  | C=CC(=O)N(C)C1CCCCC1Nc1ncc2c(n1)N(C)C(=O)N(c1c(Cl)c(OC)cc(OC)c1Cl)C2 (stereo not shown) [I-53] | < 100 |  |
|  |  | C=CC(=O)NC1CCCCC1Nc1ncc2c(n1)N(C1CCCN(C(=O)OC(C)(C)C)C1)C(=O)N(c1cc(OC)cc(OC)c1)C2 (racemic) [I-45] | > 1000 |  |
|  |  | C=CC(=O)N[C@H]1CCCC[C@H]1Nc1ncc2c(n1)N(C)C(=O)N(c1c(Cl)c(OC)c(OC)c(OC)c1Cl)C2 [I-221] | > 1000 |  |
|  |  | C=CC(=O)N(C)C1CCCCC1Nc1ncc2c(n1)N(C)C(=O)N(c1cc(OC)cc(OC)c1)C2 (racemic) [I-39] | > 1000 |  |
| 101 to 500 | 501 to 999 | C=CC(=O)Nc1ccccc1Nc1ncc2c(n1)N(Cc1cn[nH]c1)C(=O)N(c1cc(OC)cc(OC)c1)C2 [I-121] |  |  |
|  |  | C=CC(=O)Nc1ccccc1Nc1ncc2nc(-c3cc(OC)cc(OC)c3)c(=O)n(C)c2n1 [I-128] | 101 to 500 |  |
|  |  | C=CC(=O)Nc1cc(N2CCN(C(=O)OC(C)(C)C)CC2)ccc1Nc1ncc2c(n1)N(C)C(=O)N(c1c(Cl)c(OC)cc(OC)c1Cl)C2 [I-62] | < 100 |  |
|  |  | C=CC(=O)Nc1ccccc1Nc1ncc2c(n1)N(C1CCNCC1)C(=O)N(c1c(Cl)c(OC)cc(OC)c1Cl)C2 [I-85] |  | GI50 (MDA-MB-453 cells; MDA-MB-453, 96 h): < 100 nM; GI50 (Huh7 cells; Huh-7, 120 h): 101 to 500 nM |
| < 100 | 101 to 500 | C=CC(=O)NC1CCCCC1Nc1ncc2c(n1)N(Cc1cccc(NC(=O)CC)c1)C(=O)N(c1c(Cl)c(OC)cc(OC)c1Cl)C2 (racemic) [I-8] |  |  |
| < 100 | 101 to 500 | C=CC(=O)Nc1ccccc1Nc1ncc2c(n1)N(CC(F)F)C(=O)N(c1cc(OC)cc(OC)c1Cl)C2 [I-104] |  |  |
| 101 to 500 | > 1000 | C=CC(=O)Nc1ccccc1Nc1ncc2c(n1)N(Cc1cscn1)C(=O)N(c1cc(OC)cc(OC)c1)C2 [I-64] |  |  |
| 101 to 500 | > 1000 | C=CC(=O)Nc1ccccc1Nc1ncc2c(n1)N(Cc1cccc(C(N)=O)c1)C(=O)N(c1cc(OC)cc(OC)c1)C2 [I-97] |  |  |
| 101 to 500 | 501 to 999 | C=CC(=O)Nc1ccccc1Nc1ncc2c(n1)N(CC1CC1)C(=O)N(c1cc(OC)cc(OC)c1Cl)C2 [I-100] |  |  |
| 501 to 999 | > 1000 | C=CC(=O)Nc1ccccc1Nc1ncc2c(n1)N(CCOC)C(=O)N(c1cc(OC)cc(OC)c1)C2 [I-59] |  | EC50 [1]: 101 to 500 nM |
| < 100 | 101 to 500 | C=CC(=O)Nc1ccccc1Nc1ncc2c(n1)N(Cc1cn[nH]c1)C(=O)N(c1c(Cl)c(OC)cc(OC)c1Cl)C2 [I-124] |  |  |
| < 100 | 101 to 500 | C=CC(=O)NC1COCC1Nc1ncc2c(n1)N(C)C(=O)N(c1c(Cl)c(OC)cc(OC)c1Cl)C2 (stereo not shown) [I-126] |  | EC50 [1]: < 100 nM |

| GI50 (MDA-MB-453 cells; MDA-MB-453, 96 hr) [nM] | GI50 (Huh7 cells; Huh-7, Huh7, 120 hr) [nM] | Structure (SMILES) | IC50 (FGFR4-WT; [2]) [nM] | other results |
| --- | --- | --- | --- | --- |
| < 100 |  | C=CC(=O)Nc1cc(N2CCN(CC)CC2)ccc1Nc1ncc2c(n1)N(C)C(=O)N(c1cc(OC)cc(OC)c1)C2 [I-15] |  | EC50 [1]: 101 to 500 nM |
| < 100 | 101 to 500 | C=CC(=O)Nc1ccccc1Nc1ncc2c(n1)N(CC(F)F)C(=O)N(c1c(Cl)c(OC)cc(OC)c1Cl)C2 [I-103] |  |  |
| 101 to 500 |  | C=CC(=O)Nc1ccccc1Nc1ncc2c(n1)N(Cc1cccc(F)c1)C(=O)N(c1c(Cl)c(OC)cc(OC)c1Cl)C2 [I-12] |  | EC50 [1]: 101 to 500 nM |
|  |  | C=CC(=O)Nc1ccccc1Nc1ncc2cc(-c3cc(OC)cc(OC)c3)c(N)nc2n1 [I-155] | < 100 |  |
| < 100 | < 100 | C=CC(=O)Nc1ccccc1Nc1ncc2c(n1)N(Cc1cccc(N)c1)C(=O)N(c1c(Cl)c(OC)cc(OC)c1Cl)C2 [I-26] |  | EC50 [1]: < 100 nM |
|  |  | C=CC(=O)NC1CCCCC1Nc1ncc2c(n1)N(C1CCC1)C(=O)N(c1c(Cl)c(OC)cc(OC)c1Cl)C2 (racemic) [I-70] | < 100 |  |
| 101 to 500 | 501 to 999 | C=CC(=O)N[C@H]1CCCC[C@H]1Nc1ncc2c(n1)N(C)C(=O)N(c1c(Cl)c(OC)cc(OC)c1Cl)C2 [I-95] |  |  |
| 101 to 500 | > 1000 | C=CC(=O)Nc1ccccc1Nc1ncc2c(n1)N(CC(F)F)C(=O)N(c1cc(OC)cc(OC)c1)C2 [I-99] |  |  |
|  |  | C=CC(=O)NC1CCCCC1Nc1ncc2c(n1)N(C1CCCNC1)C(=O)N(c1cc(OC)cc(OC)c1)C2 (racemic) [I-46] | > 1000 |  |
|  |  | CCC(=O)Nc1ccccc1Nc1ncc2c(n1)N(Cc1ccccc1)C(=O)N(c1c(Cl)c(OC)cc(OC)c1Cl)C2 [I-236] |  | EC50 [1]: > 1000 nM |
|  |  | C=CC(=O)NC1CCCCC1Nc1ncc2c(n1)N(C)C(=O)N(c1cc(OC)cc(OC)c1)C2 (racemic) [I-18] |  | IC50 (FGFR4-WT; method b: SignalChem FGFR4-WT 2.5 nM, ATP 250 uM, Y10-Sox 10 uM): > 1000 nM |
|  |  | CCC(=O)N[C@H]1CCCC[C@H]1Nc1ncc2c(n1)N(Cc1cscn1)C(=O)N(c1c(Cl)c(OC)cc(OC)c1Cl)C2 [I-118] | > 1000 |  |
| < 100 |  | C=CC(=O)Nc1cc(N2CCN(CCOC)CC2)ccc1Nc1ncc2c(n1)N(C)C(=O)N(c1cc(OC)cc(OC)c1)C2 [I-20] |  | EC50 [1]: 101 to 500 nM |
| < 100 |  | C=CC(=O)Nc1ccccc1Nc1ncc2c(n1)N(Cc1csc(C)n1)C(=O)N(c1c(Cl)c(OC)cc(OC)c1Cl)C2 [I-134] |  | EC50 [1]: < 100 nM |
|  |  | C=CC(=O)Nc1ccccc1Nc1ncc2c(n1)N(Cc1cccc(OC)c1)C(=O)N(c1c(Cl)c(OC)cc(OC)c1Cl)C2 [I-28] | < 100 |  |
|  |  | C=CC(=O)N[C@@H]1CCCC[C@@H]1Nc1ncc2c(n1)N(Cc1cscn1)C(=O)N(c1c(Cl)c(OC)cc(OC)c1Cl)C2 [I-119] |  | IC50 (FGFR4-WT): > 1000 nM |
| 501 to 999 | > 1000 | C=CC(=O)Nc1ccccc1Nc1ncc2c(n1)N(C1COC1)C(=O)N(c1cc(OC)cc(OC)c1)C2 [I-88] |  |  |
| 501 to 999 | > 1000 | C=CC(=O)Nc1ccccc1Nc1ncc2c(n1)N(CC#N)C(=O)N(c1cc(OC)cc(OC)c1)C2 [I-48] |  |  |
| < 100 | 101 to 500 | C=CC(=O)Nc1ccccc1Nc1ncc2c(n1)N(C)C(=O)N(c1c(F)c(OC)cc(OC)c1F)C2 [I-131] |  |  |
|  |  | C=CC(=O)NC1CCCCC1Nc1ncc2c(n1)N(Cc1cccc(NS(C)(=O)=O)c1)C(=O)N(c1c(Cl)c(OC)cc(OC)c1Cl)C2 (racemic) [I-89] | < 100 |  |
|  |  | C=CC(=O)N[C@H]1CCCC[C@H]1Nc1ncc2c(n1)N(Cc1cnn(C)c1)C(=O)N(c1c(Cl)c(OC)cc(OC)c1Cl)C2 [I-148] | < 100 |  |
| < 100 | 101 to 500 | C=CC(=O)Nc1ccccc1Nc1ncc2c(n1)N(Cc1ccnc(N)c1)C(=O)N(c1cc(OC)cc(OC)c1)C2 [I-87] |  |  |

| Structure (SMILES) | GI50 (MDA-MB-453 cells; MDA-MB-453, 96 hr) [nM] | GI50 (Huh7 cells; Huh-7, Huh7, 120 hr) [nM] | IC50 (FGFR4-WT; [2]) [nM] | other results |
| --- | --- | --- | --- | --- |
| C=CC(=O)NC1CC=CCC1Nc1ncc2c(n1)N(C)C(=O)N(c1c(Cl)c(OC)cc(OC)c1Cl)C2 (racemic) [I-113] |  | 501 to 999 | < 100 |  |
| C=CC(=O)Nc1ccccc1Nc1ncc2c(n1)N(Cc1cnn(C)c1)C(=O)N(c1c(Cl)c(OC)cc(OC)c1Cl)C2 [I-149] |  | < 100 | < 100 |  |
| C=CC(=O)NC1COCC1Nc1ncc2c(n1)N(Cc1cn[nH]c1)C(=O)N(c1c(Cl)c(OC)cc(OC)c1Cl)C2 (stereo not shown) [I-214] |  | 101 to 500 |  | IC50 (FGFR4-WT): < 100 nM |
